Key:
pan-Kac = details: cells treated with nicotinamide; cited from earlier work
Source text: (§1) Histone deacetylases (HDACs), including HDACs and Sirtuin family proteins, are well studied PTM erasers that regulate gene transcription. Recently, Moreno-Yruela et al. discovered that class I HDACs (HDAC1-3), especially HDAC3, are effective lactylation erasers.[5] […] The authors also treated cells with HDAC inhibitors (butyrate, trichostatin A, and apicidin) and a Sirtuin pan-inhibitor (nicotinamide) to compare the intracellular delactylation activities between HDACs and Sirtu ...

pan-Kla = details: cells treated with nicotinamide; cited from earlier work
Source text: as §1

SIRT6 = test: fluorogenic probe delactylation assay; type: biochemical, human; details: 10 μM probe, 100 μM NAD+, HEPES pH 8.0, 37°C, 2 h
Procedure: (§2) To determine the fluorescence change after incubating p-H4K16laNBD with various enzymes (HDAC3, SIRT1-3, SIRT5-7), we incubated 10 μM p-H4K16laNBD with 0.2 μM SIRT1-7 (except SIRT4) in 20 mM HEPES buffer (pH = 8.0) containing 100 μM NAD^+ for 2 h. For positive control, we used 0.1 μM HDAC3. The fluorescence was measured using an excitation wavelength of 480 nm, and the emitted fluorescence signal at 550 nm was measured using a microplate reader (Molecular Devices SpectraMax ID5 Microplate Reader).

SIRT7 = test: fluorogenic probe delactylation assay; type: biochemical, human; details: 10 μM probe, 100 μM NAD+, HEPES pH 8.0, 37°C, 2 h
Procedure: as §2

SIRT5 = test: fluorogenic probe delactylation assay; type: biochemical, human; details: 10 μM probe, 100 μM NAD+, HEPES pH 8.0, 37°C, 2 h
Procedure: as §2

HDAC3 = biological target: T1, HDAC3 (Homo sapiens, UniProt O15379); test: fluorogenic probe delactylation assay; type: biochemical; details: 10 μM probe
T1 construct: purchased Abcam ab42631
T1 sequence (O15379 whole entry): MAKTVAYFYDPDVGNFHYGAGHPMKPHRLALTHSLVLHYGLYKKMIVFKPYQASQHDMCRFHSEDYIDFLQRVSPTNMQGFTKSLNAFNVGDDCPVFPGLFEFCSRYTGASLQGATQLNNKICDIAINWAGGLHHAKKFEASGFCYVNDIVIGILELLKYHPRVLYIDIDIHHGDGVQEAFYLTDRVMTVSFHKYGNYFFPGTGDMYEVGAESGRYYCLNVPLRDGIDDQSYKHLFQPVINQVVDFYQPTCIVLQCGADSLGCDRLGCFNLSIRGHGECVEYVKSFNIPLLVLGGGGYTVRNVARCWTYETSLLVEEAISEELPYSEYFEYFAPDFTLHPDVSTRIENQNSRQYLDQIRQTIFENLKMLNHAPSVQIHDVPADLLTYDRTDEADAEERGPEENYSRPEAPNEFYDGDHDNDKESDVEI
T1 sequence (Q9Y618 395-489 partner limits assumed): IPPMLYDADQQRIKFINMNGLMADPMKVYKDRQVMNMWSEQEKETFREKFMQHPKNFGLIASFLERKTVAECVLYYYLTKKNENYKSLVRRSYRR
Procedure: (§3) To determine the absorption spectra, 10 μM p-H4K16laNBD was incubated with or without 0.2 μM SIRT3 and 100 μM NAD^+ for 2 h in 20 mM HEPES buffer (pH = 8.0). For the fluorescence assay, the fluorescence was detected using an excitation wavelength of 480 nm, and the emitted fluorescence signal was measured over the range of 520–740 nm using a microplate reader (Molecular Devices SpectraMax ID5 Microplate Reader).
(§4) For the HPLC analysis, we incubated 10 μM p-H4K16laNBD with 0.2 μM SIRT3 and 100 μM NAD^+ in 20 mM HEPES buffer (pH = 8.0) for 2 h. We also performed time-dependent fluorescence measurements by incubating 10 μM p-H4K16laNBD with 0.2 μM SIRT3 and 100 μM NAD^+ or 0.1 μM HDAC3 in 20 mM HEPES buffer (pH = 8.0) for different time intervals. The fluorescence was measured using an excitation wavelength of 480 nm, and the emitted fluorescence signal at 550 nm was measured using a microplate reader (Molecular Devices SpectraMax ID5 Microplate Reader).
as §2

SIRT3 = biological target: T2, SIRT3 (Homo sapiens, UniProt Q9NTG7); test: fluorogenic probe delactylation assay; type: biochemical
T2 construct: SIRT3 (118–399 aa); 6xHis with TEV site (pET-N-6xHis-TEV vector) (N, cleaved yes); made in house; host or cells: E. coli BL21-CodonPlus (DE3)-RIL
T2 sequence (Q9NTG7 118-399): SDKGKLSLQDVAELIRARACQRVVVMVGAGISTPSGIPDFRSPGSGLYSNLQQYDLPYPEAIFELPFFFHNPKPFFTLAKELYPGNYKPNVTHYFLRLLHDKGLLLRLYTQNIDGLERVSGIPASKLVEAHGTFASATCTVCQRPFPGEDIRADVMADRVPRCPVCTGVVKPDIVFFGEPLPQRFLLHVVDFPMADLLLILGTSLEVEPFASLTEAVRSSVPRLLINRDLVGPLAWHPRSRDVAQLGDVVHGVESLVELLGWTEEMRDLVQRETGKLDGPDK
Procedure: as §3, §4, §2

SIRT1 = biological target: T3, SIRT1 (Homo sapiens, UniProt Q96EB6); test: fluorogenic probe delactylation assay; type: biochemical; details: 10 μM probe, 100 μM NAD+, HEPES pH 8.0, 37°C, 2 h
T3 construct: the human SIRT1 core region (234–505 aa); SUMO (pET-28a-sumo vector) (cleaved yes); made in house; host or cells: E. coli BL21-CodonPlus (DE3)-RIL
T3 sequence (Q96EB6 234-505): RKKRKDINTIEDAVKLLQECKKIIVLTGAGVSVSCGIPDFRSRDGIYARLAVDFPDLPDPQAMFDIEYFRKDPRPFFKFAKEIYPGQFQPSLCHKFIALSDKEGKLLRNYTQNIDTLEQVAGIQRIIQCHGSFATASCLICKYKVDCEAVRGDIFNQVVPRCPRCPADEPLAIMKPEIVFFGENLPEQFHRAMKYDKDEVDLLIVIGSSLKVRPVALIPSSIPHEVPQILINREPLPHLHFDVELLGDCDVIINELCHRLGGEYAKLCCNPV
Procedure: as §2

SIRT2 = biological target: T4, SIRT2 (Homo sapiens, UniProt Q8IXJ6); test: fluorogenic probe delactylation assay; type: biochemical; details: 10 μM probe, 100 μM NAD+, HEPES pH 8.0, 37°C, 2 h
T4 construct: SIRT2 (50–356 aa); SUMO (pET-28a-sumo vector) (cleaved yes); made in house; host or cells: E. coli BL21-CodonPlus (DE3)-RIL
T4 sequence (Q8IXJ6 50-356): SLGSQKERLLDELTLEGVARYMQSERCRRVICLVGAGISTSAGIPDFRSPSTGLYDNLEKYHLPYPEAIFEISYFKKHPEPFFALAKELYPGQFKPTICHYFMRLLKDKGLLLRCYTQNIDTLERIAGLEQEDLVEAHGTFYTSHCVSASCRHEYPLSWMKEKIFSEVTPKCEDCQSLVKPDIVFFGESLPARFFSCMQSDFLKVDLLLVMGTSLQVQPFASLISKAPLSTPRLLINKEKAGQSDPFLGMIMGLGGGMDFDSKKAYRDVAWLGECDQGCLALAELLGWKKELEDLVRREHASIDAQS
Procedure: as §2

[1] = absorption/fluorescence spectra of the probe; type: physicochemical; details: 10 μM probe
Procedure: as §3

Question: What does the source list for NC(=O)c1cccnc1 [nicotinamide]?
Answer: pan-Kac level change (pan-Kac): unchanged; pan-Kla level change (pan-Kla): unable to induce Sirtuin-regulated pan-Kla increasement

Question: With “GGAK(lac)RHRPra-NH2 [p-H4K16laNBD, H4K16la based fluorogenic probe with O-NBD (nitrobenzofurazan) group conjugated to the C-terminus]” as the compound, how does the “fluorescence response, SIRT6” value (SIRT6) read?
Answer: minimal changes in fluorescence

Question: And the “fluorescence response, SIRT7” value (SIRT7)?
Answer: minimal changes in fluorescence

Question: And the “fluorescence response, SIRT5” value (SIRT5)?
Answer: minimal changes in fluorescence

Question: What about the “first-order rate constant k, HDAC3” value (HDAC3; 0.1 μM HDAC3, 20 mM HEPES pH 8.0, λex 480, λem 550 nm) of the same compound?
Answer: 0.0102 min⁻¹

Question: What about the “fluorescence response, HDAC3” value (HDAC3; 0.1 μM HDAC3, HEPES pH 8.0, 37°C, 2 h) of the same compound?
Answer: fluoresced at 550 nm

Question: What about the “first-order rate constant k, SIRT3” value (SIRT3; 10 μM probe, 0.2 μM SIRT3, 100 μM NAD+, 20 mM HEPES pH 8.0, λex 480, λem 550 nm) of the same compound?
Answer: 0.0059 min⁻¹

Question: And the “fluorescence response, SIRT3” value (SIRT3; 10 μM probe, SIRT3, 100 μM NAD+, HEPES pH 8.0, 37°C, 2 h)?
Answer: fluoresced at 550 nm

Question: And the “fluorescence with sole NAD+ or denatured SIRT3” value (SIRT3; control groups)?
Answer: will not affect the fluorescence generating

Question: And the “fluorescence response, SIRT1” value (SIRT1)?
Answer: minimal changes in fluorescence

Question: And the “fluorescence response, SIRT2” value (SIRT2)?
Answer: minimal changes in fluorescence

Question: What about the “new absorption peak after enzymatic reaction” value ([1]; 0.2 μM SIRT3, 100 μM NAD+, 2 h, HEPES pH 8.0) of the same compound?
Answer: 482 nm

Question: And the absorption peak ([1]; 20 mM HEPES pH 8.0, without enzyme)?
Answer: around 370 nm

Question: And the “fluorescence emission peak after incubation with SIRT3 and NAD+” value ([1]; λex 480 nm, 0.2 μM SIRT3, 100 μM NAD+)?
Answer: 550 nm

From article PMC10504495 (iScience, 2023)
